Laboratory results taken from patent US12351574B2, “Selective ligands for modulation of GIRK channels” (Northeastern University, priority 2018, dated 2025).

Columns and labels:
light-dark box (LD) test = assay type: in vivo, rat; settings: 10 and 30 mg/kg
Procedure: Light-dark box: Light-Dark Box test was preformed using a cage 52×100×39 cm divided into two equal sections by an opening. One section is brightly illuminated whereas the other section is dark. Animals were injected 30 min prior to testing with vehicle or ligand and then placed into the light side with immediate access to explore the entire cage. Time spent in the illuminated section was analyzed. The chamber was cleaned between each experiment.

[1] = novel object recognition (NOR) test; assay type: in vivo, rat; settings: 10 and 30 mg/kg
Procedure: Novel object recognition test (NORT): Novel object recognition test was performed in an open-field box measuring 100×100×20 cm as previously described. Prior to testing, the rats were allowed to explore the box for 5 min per day for 3 consecutive days with no objects present. Testing consisted of two 2 min trials. During a familiarization trial, two identical objects (plastic cylinders 6 cm in diameter and 12 cm tall in white and red) were placed in two adjacent corners. The animal was then released against the center of the opposite wall with its back to the objects. This was done to prevent coercion to explore the objects. The animals were regarded to be exploring when they were facing, sniffing, or biting the object with nose and/or forepaws. Immediately after familiarization, the rats received intraperitoneal (i.p.) injections of vehicle or ligands and were returned to its home cage. After a waiting period of 3 h (|T|=3 h), the rat was placed in the box again and test trial was performed. […] The times spent in exploring each object during both trials were recorded manually by using a stopwatch. […] Discrimination index (DI) was used to measure object recognition and is calculated as the difference in time exploring the novel (TN) versus familiar object (TF), then dividing this value by the total time spent exploring the two objects in the test trial. […]

GIRK1/2(IV-VT) = target: T1, GIRK1/2(IV-VT) (UniProt P48542+P48549, I97V/V99T); experiment: TEVC in Xenopus oocytes, double mutant GIRK1/2(IV-VT); assay type: cell-based, human GIRK1, mouse GIRK2; settings: GIRK1/2(IV-VT) double mutant
T1 construct: expressed in transfected cells; host or cells: Xenopus laevis oocytes (cRNA injection)
T1 sequence (P48549 1-501): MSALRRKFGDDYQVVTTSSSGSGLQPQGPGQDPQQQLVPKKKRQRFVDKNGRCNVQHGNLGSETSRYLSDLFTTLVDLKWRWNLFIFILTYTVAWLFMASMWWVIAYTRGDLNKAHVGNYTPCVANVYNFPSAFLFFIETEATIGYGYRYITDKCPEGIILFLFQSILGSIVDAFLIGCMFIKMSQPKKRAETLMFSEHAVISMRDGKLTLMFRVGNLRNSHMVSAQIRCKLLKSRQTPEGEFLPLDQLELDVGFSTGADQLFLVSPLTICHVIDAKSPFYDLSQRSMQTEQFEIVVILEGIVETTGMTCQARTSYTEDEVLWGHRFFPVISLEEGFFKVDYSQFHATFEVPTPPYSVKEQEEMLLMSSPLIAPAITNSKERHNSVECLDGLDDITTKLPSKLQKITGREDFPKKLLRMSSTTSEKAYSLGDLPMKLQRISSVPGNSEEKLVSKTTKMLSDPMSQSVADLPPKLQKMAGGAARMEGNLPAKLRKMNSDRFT
T1 sequence (P48542 1-425 I97V/V99T): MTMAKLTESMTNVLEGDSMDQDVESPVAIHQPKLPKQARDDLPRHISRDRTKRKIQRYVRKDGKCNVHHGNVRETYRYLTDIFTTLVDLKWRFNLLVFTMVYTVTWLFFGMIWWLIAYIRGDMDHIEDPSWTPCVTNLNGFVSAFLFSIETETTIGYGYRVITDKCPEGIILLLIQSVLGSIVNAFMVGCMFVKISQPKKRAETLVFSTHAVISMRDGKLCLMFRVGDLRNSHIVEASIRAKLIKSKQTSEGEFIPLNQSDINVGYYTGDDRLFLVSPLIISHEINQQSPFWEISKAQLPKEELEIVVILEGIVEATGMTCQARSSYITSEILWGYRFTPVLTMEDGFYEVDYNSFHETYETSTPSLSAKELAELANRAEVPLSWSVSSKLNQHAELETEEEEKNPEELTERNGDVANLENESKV
Excerpt: Molecular biology: For Xenopus oocyte expression, human GIRK1 and human GIRK4 cDNAs were subcloned into pGEMHE. For mammalian expression, human GIRK1 and human GIRK4 cDNAs were subcloned into pcDNA3 and pcDNA3.1/V5-His B, respectively (Invitrogen). Mouse GIRK2 cDNA was subcloned in the dual-function vector, pXoom. Point mutations were introduced using a standard Pfu-based mutagenesis technique according to the QuikChange protocol (Agilent). Mutations were verified by sequencing.
Electrophysiology of oocytes: Whole-oocyte currents were measured by conventional two-electrode voltage clamp (TEVC) with a GeneClamp 500 amplifier (Axon Instruments). Agarose cushion microelectrodes were filled with 1.5% (w/v) agarose in 3 M KCl and were used with resistances between 0.1 and 1.5 megaohms. […] Barium-sensitive basal currents from both groups, 1) Vehicle, 2) single concentration at 10 μM and 3) multiple concentrations of ML297 or GAT compounds in the presence of HK solution, were assessed at −80 mV using TEVC. Barium-sensitive currents were normalized to average basal current in the vehicle solutions. The HK solution contained the following: 96 mM KCl, 1 mM NaCl, 1 mM MgCl2, 5 mM KOH/HEPES, pH 7.4. The barium solution consisted of HK+10 mM BaCl2. Five to ten oocytes from the same batch (same frog) were recorded for each group, and the experiments were repeated in at least four batches. Data acquisition and analysis were carried out using pClamp9 (Molecular Devices) and OriginPro (Microcal) software.
To test these computational predictions, the inventors mutated each or both of the two M1 key wild-type GIRK4 subunit residues to the corresponding GIRK2 residues (GIRK4-V92I, GIRK4-T94V, GIRK4-V92I/T94V or GIRK4-dm) and vice-versa the GIRK2 residues to the corresponding GIRK4 ones (GIRK2-I97V, GIRK2-V99T, GIRK2-I97V/V99T or GIRK2-dm) (FIG. 35). […]

[2] = target: human ERG (hERG) channels (Homo sapiens, UniProt Q12809); parameters: expressed in transfected cells; host or cells: Xenopus oocytes; settings: published; cited from earlier work
Chain of human ERG (hERG) channels (Q12809 whole entry): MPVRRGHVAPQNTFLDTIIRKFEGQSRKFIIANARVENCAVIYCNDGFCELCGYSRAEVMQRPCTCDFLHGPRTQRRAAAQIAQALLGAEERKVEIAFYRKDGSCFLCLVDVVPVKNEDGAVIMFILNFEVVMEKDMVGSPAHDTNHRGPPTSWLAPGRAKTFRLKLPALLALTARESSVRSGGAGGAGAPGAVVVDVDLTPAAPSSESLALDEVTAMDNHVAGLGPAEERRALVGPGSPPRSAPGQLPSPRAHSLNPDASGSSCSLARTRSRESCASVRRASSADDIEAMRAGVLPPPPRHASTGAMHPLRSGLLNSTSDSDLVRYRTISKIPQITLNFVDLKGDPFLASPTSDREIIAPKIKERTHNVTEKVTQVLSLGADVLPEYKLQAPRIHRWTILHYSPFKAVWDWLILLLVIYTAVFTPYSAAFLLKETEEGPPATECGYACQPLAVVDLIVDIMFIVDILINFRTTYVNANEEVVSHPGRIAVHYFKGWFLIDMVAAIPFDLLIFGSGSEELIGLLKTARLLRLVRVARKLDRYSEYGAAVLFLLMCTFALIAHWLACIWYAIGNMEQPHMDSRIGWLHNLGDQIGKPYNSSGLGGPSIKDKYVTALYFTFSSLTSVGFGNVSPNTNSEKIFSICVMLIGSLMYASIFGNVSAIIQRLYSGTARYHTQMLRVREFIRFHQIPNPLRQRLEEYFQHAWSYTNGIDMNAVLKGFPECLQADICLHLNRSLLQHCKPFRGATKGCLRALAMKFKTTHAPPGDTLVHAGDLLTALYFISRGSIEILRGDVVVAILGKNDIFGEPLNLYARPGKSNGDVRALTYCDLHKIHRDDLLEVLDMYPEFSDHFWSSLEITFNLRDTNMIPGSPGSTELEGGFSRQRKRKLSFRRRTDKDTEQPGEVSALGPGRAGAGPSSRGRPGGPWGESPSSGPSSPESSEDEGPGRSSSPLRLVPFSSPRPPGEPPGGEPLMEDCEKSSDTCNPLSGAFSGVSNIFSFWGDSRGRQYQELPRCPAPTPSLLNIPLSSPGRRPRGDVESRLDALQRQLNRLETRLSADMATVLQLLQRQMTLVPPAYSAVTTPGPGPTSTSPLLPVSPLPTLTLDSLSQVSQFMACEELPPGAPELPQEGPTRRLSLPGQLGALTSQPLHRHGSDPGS

time spent in the light compartment versus vehicle (in words) (light-dark box (LD) test) | discrimination index (in words) [1] | EC50 (GIRK1/2(IV-VT)) | EMAX (GIRK1/2(IV-VT)) | Emax (GIRK1/2(IV-VT); read-out: EMAX, % of the control GIRK1/2) | SMILES | IC50 [2]
no difference | similar | 0.94 ± 0.15 µM | 1.68±0.04 | 72% | Cc1cc(NC(=O)Nc2ccc(Br)s2)n(-c2ccccc2)n1 [GAT1508, 1-(5-bromothiophen-2-yl)-3-(3-methyl-1-phenyl-1H-pyrazol-5-yl)urea] | –
– | – | – | – | – | Cc1cc(NC(=O)Nc2ccc(F)c(F)c2)n(-c2ccccc2)n1 [ML297, reference compound] | ~10 µM
